Experimental data published in ChEMBL document CHEMBL3885881, “DrugMatrix”.

What was measured:
Rattus norvegicus [1] = species: Rattus norvegicus; assay: DrugMatrix - Regimen: Daily Repeat; type: toxicity, organism-based, Sprague-Dawley; parameters: regimen Daily Repeat, gender Male, age 6-8 weeks; conditions: in vivo, po, 2 mg/kg, route oral GAVAGE, dose level High, vehicle 100 % WATER; for ABSOLUTE BASOPHIL / ABSOLUTE EOSINOPHIL / ABSOLUTE LYMPHOCYTE / ABSOLUTE MONOCYTE / ABSOLUTE SEGMENTED NEUTROPHIL / BASOPHIL / EOSINOPHIL / ERYTHROCYTE COUNT / HEMATOCRIT / HEMOGLOBIN / LEUKOCYTE COUNT / LYMPHOCYTE / MEAN CORPUSCULAR HEMOGLOBIN / MEAN CORPUSCULAR HEMOGLOBIN CONCENTRATION / MEAN CORPUSCULAR VOLUME / MONOCYTE / NEUTROPHIL / NUCLEATED RED BLOOD CELLS / PLATELET COUNT: tissue Blood; for ALANINE AMINOTRANSFERASE / ALBUMIN / ALKALINE PHOSPHATASE / ASPARTATE AMINOTRANSFERASE / BLOOD UREA NITROGEN / CARBON DIOXIDE / CHLORIDE / CHOLESTEROL / CREATININE / GLUCOSE / LACTATE DEHYDROGENASE / LIPASE / PHOSPHORUS / POTASSIUM / SODIUM / TOTAL BILIRUBIN / TOTAL PROTEIN / URIC ACID: tissue Plasma
Rattus norvegicus [2] = species: Rattus norvegicus; type: toxicity, organism-based, Sprague-Dawley; conditions: in vivo, po, 2 mg/kg, 24 h, route oral GAVAGE, dose level High, time 1 day, vehicle 100 % WATER
Description: DrugMatrix - Regimen: Single

## O=[Se]([O-])[O-].[Na+].[Na+] [SODIUM SELENITE]
Rattus norvegicus [1]; 72 h, time 3 day
  ABSOLUTE BASOPHIL: 0 CELLS/uL
  ABSOLUTE EOSINOPHIL: 0 CELLS/uL
  ABSOLUTE LYMPHOCYTE: 12300.67 CELLS/uL
  ABSOLUTE MONOCYTE: 763.67 CELLS/uL
  ABSOLUTE SEGMENTED NEUTROPHIL: 2435.67 CELLS/uL
  BASOPHIL: 0%
  EOSINOPHIL: 0%
  ERYTHROCYTE COUNT: 6.2 x10E6/uL
  HEMATOCRIT: 38.47%
  HEMOGLOBIN: 14.1 G/DL
  LEUKOCYTE COUNT: 15.5 x10E3/uL
  LYMPHOCYTE: 80%
  MEAN CORPUSCULAR HEMOGLOBIN: 22.77 pg
  MEAN CORPUSCULAR HEMOGLOBIN CONCENTRATION: 36.7 G/DL
  MEAN CORPUSCULAR VOLUME: 62.07 fL
  MONOCYTE: 5%
  NEUTROPHIL: 15%
  NUCLEATED RED BLOOD CELLS: 0 /100WBC
  PLATELET COUNT: 701.33 x10E3/uL
  ALANINE AMINOTRANSFERASE: 84.33 u/L
  ALBUMIN: 4.57 G/DL
  ALKALINE PHOSPHATASE: 506.33 u/L
  ASPARTATE AMINOTRANSFERASE: 143.67 u/L
  BLOOD UREA NITROGEN: 15.67 mg/dL
  CARBON DIOXIDE: 24 mmol/L
  CHLORIDE: 102.33 MEQ/L
  CHOLESTEROL: 121.33 mg/dL
  CREATININE: 0.18 mg/dL
  GLUCOSE: 145.67 mg/dL
  LACTATE DEHYDROGENASE: 321.67 u/L
  LIPASE: 9 u/L
  PHOSPHORUS: 12.8 mg/dL
  POTASSIUM: 5.73 MEQ/L
  SODIUM: 146 MEQ/L
  TOTAL BILIRUBIN: 0.23 mg/dL
  TOTAL PROTEIN: 6.53 G/DL
  URIC ACID: 1.43 mg/dL
Rattus norvegicus [1]; 120 h, time 5 day
  ABSOLUTE BASOPHIL: 0 CELLS/uL
  ABSOLUTE EOSINOPHIL: 0 CELLS/uL
  ABSOLUTE LYMPHOCYTE: 10507.33 CELLS/uL
  ABSOLUTE MONOCYTE: 251 CELLS/uL
  ABSOLUTE SEGMENTED NEUTROPHIL: 875 CELLS/uL
  BASOPHIL: 0%
  EOSINOPHIL: 0%
  ERYTHROCYTE COUNT: 5.43 x10E6/uL
  HEMATOCRIT: 33.4%
  HEMOGLOBIN: 12.4 G/DL
  LEUKOCYTE COUNT: 11.63 x10E3/uL
  LYMPHOCYTE: 90.33%
  MEAN CORPUSCULAR HEMOGLOBIN: 22.87 pg
  MEAN CORPUSCULAR HEMOGLOBIN CONCENTRATION: 37.17 G/DL
  MEAN CORPUSCULAR VOLUME: 61.53 fL
  MONOCYTE: 2%
  NEUTROPHIL: 7.67%
  NUCLEATED RED BLOOD CELLS: 0 /100WBC
  PLATELET COUNT: 896.33 x10E3/uL
  ALANINE AMINOTRANSFERASE: 56.33 u/L
  ALBUMIN: 4.77 G/DL
  ALKALINE PHOSPHATASE: 396 u/L
  ASPARTATE AMINOTRANSFERASE: 80.67 u/L
  BLOOD UREA NITROGEN: 12.33 mg/dL
  CARBON DIOXIDE: 33.33 mmol/L
  CHLORIDE: 98.33 MEQ/L
  CHOLESTEROL: 86.33 mg/dL
  CREATININE: 0.14 mg/dL
  GLUCOSE: 141 mg/dL
  LACTATE DEHYDROGENASE: 84 u/L
  LIPASE: 8.33 u/L
  PHOSPHORUS: 13.2 mg/dL
  POTASSIUM: 6.3 MEQ/L
  SODIUM: 145.1 MEQ/L
  TOTAL BILIRUBIN: 0.2 mg/dL
  TOTAL PROTEIN: 6.87 G/DL
  URIC ACID: 0.67 mg/dL
Rattus norvegicus [1]; […], time 14 day
  ABSOLUTE BASOPHIL: 0 CELLS/uL
  ABSOLUTE EOSINOPHIL: 217 CELLS/uL
  ABSOLUTE LYMPHOCYTE: 17297 CELLS/uL
  ABSOLUTE MONOCYTE: 361.6 CELLS/uL
  ABSOLUTE SEGMENTED NEUTROPHIL: 2204.4 CELLS/uL
  BASOPHIL: 0%
  EOSINOPHIL: 1.2%
  ERYTHROCYTE COUNT: 6.02 x10E6/uL
  HEMATOCRIT: 35.24%
  HEMOGLOBIN: 13.22 G/DL
  LEUKOCYTE COUNT: 20.08 x10E3/uL
  LYMPHOCYTE: 85.8%
  MEAN CORPUSCULAR HEMOGLOBIN: 21.98 pg
  MEAN CORPUSCULAR HEMOGLOBIN CONCENTRATION: 37.54 G/DL
  MEAN CORPUSCULAR VOLUME: 58.52 fL
  MONOCYTE: 1.8%
  NEUTROPHIL: 11.2%
  NUCLEATED RED BLOOD CELLS: 0 /100WBC
  PLATELET COUNT: 1010.8 x10E3/uL
  ALANINE AMINOTRANSFERASE: 60.2 u/L
  ALBUMIN: 4.26 G/DL
  ALKALINE PHOSPHATASE: 330.2 u/L
  ASPARTATE AMINOTRANSFERASE: 119.4 u/L
  BLOOD UREA NITROGEN: 14 mg/dL
  CARBON DIOXIDE: 22.8 mmol/L
  CHLORIDE: 104.2 MEQ/L
  CHOLESTEROL: 62.8 mg/dL
  CREATININE: 0.21 mg/dL
  GLUCOSE: 199.6 mg/dL
  LACTATE DEHYDROGENASE: 281.2 u/L
  LIPASE: 8 u/L
  PHOSPHORUS: 13.28 mg/dL
  POTASSIUM: 5.95 MEQ/L
  SODIUM: 148.62 MEQ/L
  TOTAL BILIRUBIN: 0.16 mg/dL
  TOTAL PROTEIN: 6.16 G/DL
  URIC ACID: 2.08 mg/dL
Rattus norvegicus [2]; tissue Blood
  ABSOLUTE EOSINOPHIL: 75.33 CELLS/uL
  ABSOLUTE LYMPHOCYTE: 14511 CELLS/uL
  ABSOLUTE MONOCYTE: 680 CELLS/uL
  ABSOLUTE SEGMENTED NEUTROPHIL: 1733.67 CELLS/uL
  BASOPHIL: 0%
  EOSINOPHIL: 0.67%
  ERYTHROCYTE COUNT: 5.44 x10E6/uL
  HEMATOCRIT: 34.57%
  HEMOGLOBIN: 12.77 G/DL
  LEUKOCYTE COUNT: 17 x10E3/uL
  LYMPHOCYTE: 85%
  MEAN CORPUSCULAR HEMOGLOBIN: 23.53 pg
  MEAN CORPUSCULAR HEMOGLOBIN CONCENTRATION: 36.97 G/DL
  MEAN CORPUSCULAR VOLUME: 63.6 fL
  MONOCYTE: 4%
  NEUTROPHIL: 10.33%
  NUCLEATED RED BLOOD CELLS: 0 /100WBC
  PLATELET COUNT: 978.67 x10E3/uL
Rattus norvegicus [2]; tissue Plasma
  ALANINE AMINOTRANSFERASE: 57.67 u/L
  ALBUMIN: 4.3 G/DL
  ALKALINE PHOSPHATASE: 357.67 u/L
  ASPARTATE AMINOTRANSFERASE: 80.67 u/L
  BLOOD UREA NITROGEN: 12.33 mg/dL
  CARBON DIOXIDE: 27.67 mmol/L
  CHLORIDE: 103 MEQ/L
  CHOLESTEROL: 82.67 mg/dL
  CREATININE: 0.15 mg/dL
  GLUCOSE: 177 mg/dL
  LACTATE DEHYDROGENASE: 119 u/L
  LIPASE: 7.67 u/L
  PHOSPHORUS: 13.23 mg/dL
  POTASSIUM: 6.75 MEQ/L
  SODIUM: 146.8 MEQ/L
  TOTAL BILIRUBIN: 0.2 mg/dL
  TOTAL PROTEIN: 5.73 G/DL
  URIC ACID: 2.07 mg/dL
